# Experiments:
# [1] = tested on: Notch1; assay: CBF1 binding site luciferase reporter assay; assay type: cell-based, human; conditions: DAPT 50 μM pretreatment 45 minutes, then 4 mM VPA
# Procedure: Luciferase Reporter Assays GI carcinoid tumor cells were transiently transfected with luciferase constructs as previously described (Kunnimalaiyaan, M. et al., Conservation of the Notch1 signaling pathway in gastrointestinal carcinoid cells A J Physiol Gastrointest Liver Physiol 2005; 289:G636-642). Wild-type (4xwtCBF1Luc; 2 μg) or mutant (4xmutCBF1Luc; 2 μg) CBF1-luciferase reporter plasmids were co-transfected with CMV-β-gal (0.5 μg) (Hsieh J J et al., Truncated Mammalian Notch1 Activates CBF1/RBPJk-Repressed Genes by a Mechanism Resembling That of Epstein-Barr Virus EBNA2. Mol Cell Biol 1996; 16:952-959). In experiments with the γ-secretase inhibitor, N-[N-(3,5-difluorophenacetyl)-L-alanyl]-S-phenylglycine t-butyl ester (DAPT; EMD Biosciences, Darmstadt, Germany), to inhibit Notch1 cleavage and activation, cells were pretreated for 45 minutes with DAPT (50 μM) then treated with 4 mM VPA. […] Luciferase levels were measured using a Monolight 2010 Luminometer (Analytical Luminescence Laboratory, San Diego, Calif.). […]
# [2] = tested on: MEK; assay: MEK inhibitors and Notch1-mediated hormone suppression; assay type: cell-based, human; conditions: PD098059 25-50 uM or U0126 5-20 uM pre-treatment
# Procedure: 1) MEK inhibitors. BON, BON-Notch1, H727, H727-Notch1, TT, and TT-Notch1 cells are pre-treated with either PD098059 (25-50 uM) or U0126 (5-20 uM) (both well-characterized MEK inhibitors) (Sippel R S, et al., Am J Physiol Gastrointest Liver Physiol 2003; 285:G245-G254; Sippel R S, et al., Surgery 2003; 134:866-871), alone or in combination, followed by addition of control or doxycycline (1 μg) for 24, 48, and 96 hours. Cells are then analyzed with the following methods.
# 2) Confirmation of MEK inhibition. To confirm MEK inhibition after treatment with PD098059 and U0126, cellular extracts are analyzed by Western blots utilizing antibodies against MEK, phospho-MEK, ERK1/2, and phospho-ERK1/2. MAPK in vitro kinase assay with a commercially available kit (Cell Signal Technology) is used to confirm blockade of MEK activity.
# 3) hASH1 and NE marker expression. To determine if MEK inhibition blocks Notch1-mediated NE marker suppression, cellular extracts are analyzed using western blots with hASH1, chromogranin A, synaptophysin, and neuron-specific enolase, and serotonin or calcionin secretion will be assessed using an ELISA assay, as described above.
# [3] = tested on: BON human GI carcinoid cancer cells; assay: Western blot analysis of GI carcinoid cells; assay type: cell-based
# Procedure: Cell Culture BON human GI carcinoid cancer cells, kindly provided by Drs. B. Mark Evers and Courtney M. Townsend, Jr.
# Total protein concentrations were quantified with a bicinchoninic acid assay kit (Pierce Biotechnology, Rockford, Ill., USA). Denatured cellular extracts were resolved by SDS-PAGE, transferred to nitrocellulose membranes (Schleicher and Schuell, Keene, N.H., USA), blocked in milk, and incubated with appropriate antibodies. The antibody dilutions were: 1:1,000 for Notch1 (Santa Cruz Biotechnology, Santa Cruz, Calif., USA), mammalian achaete-scute homolog 1 (ASCL1; BD Biosciences, San Diego, Calif., USA), chromogranin A (Zymed Laboratories, San Francisco, Calif., USA), and cyclin D1 (Cell Signaling Technology, Danvers, Mass., USA), 1:2,000 for p21 (Cell Signaling Technology) and p27 (Santa Cruz Biotechnology), and 1:10,000 for glyceraldehyde-3-phosphate dehydrogenase (G3PDH; Trevigen, Gaithersburg, Md., USA). Horseradish peroxidase conjugated goat anti-rabbit or goat anti-mouse secondary antibodies (Pierce Biotechnology) were used depending on the source of the primary antibody. For visualization of the protein signal, Immunstar (Bio-Rad Laboratories, Hercules, Calif., USA) or SuperSignal West Femto (Pierce Biotechnology) kits were used per the manufacturer's instructions.
# Cell Culture BON human gastrointestinal (GI) carcinoid tumor cells, kindly provided by Drs. B. Mark Evers and Courtney M. Townsend, Jr.
# Total protein concentrations were quantified with a bicinchoninic acid assay kit (Pierce Biotechnology, Rockford, Ill.). Denatured cellular extracts were resolved by SDS-PAGE, transferred onto nitrocellulose membranes (Schleicher and Schuell, Keene, N H), blocked in milk, and incubated with appropriate antibodies. The antibody dilutions were: 1:1,000 for Notch1 (Santa Cruz Biotechnology, Santa Cruz, Calif.), mammalian achaete-scute homolog 1 (ASCL1; BD Biosciences, San Diego, Calif.), chromogranin A (Zymed Laboratories, San Francisco, Calif.), and cyclin D1 (Cell Signaling Technology, Danvers, Mass.), 1:2,000 for p21 (Cell Signaling Technology) and p27 (Santa Cruz Biotechnology), and 1:10,000 for glyceraldehyde-3-phosphate dehydrogenase (G3PDH; Trevigen, Gaithersburg, Md.). Horseradish peroxidase conjugated goat anti-rabbit or goat anti-mouse secondary antibodies (Pierce Biotechnology) were used depending on the source of the primary antibody. For visualization of the protein signal, Immunstar (Bio-Rad Laboratories, Hercules, Calif.) or SuperSignal West Femto (Pierce Biotechnology) kits were used per the manufacturer's instructions.
# [4] = tested on: H727 human lung carcinoid cancer cells; assay: Western blot analysis of pulmonary carcinoid cells; assay type: cell-based
# [5] = tested on: carcinoid tumor cells; conditions: cited from earlier work
# [6] = tested on: hASH1; conditions: small cell lung cancer cells; cited from earlier work
molecule,measurement,setting,value
"C[C@H](NC(=O)Cc1cc(F)cc(F)c1)C(=O)N[C@H](C(=O)OC(C)(C)C)c1ccccc1 [DAPT, N-[N-(3,5-difluorophenacetyl)-L-alanyl]-S-phenylglycine t-butyl ester]",effect of VPA on CBF1 binding,[1],blocked the effect of VPA on CBF1 binding
COc1cccc(-c2cc(=O)c3ccccc3o2)c1N [PD098059],Notch1-mediated hormone suppression,[2],block
"O=C(CCCCCCC(=O)Nc1ccccc1)NO [SAHA, suberoylanilide hydroxamic acid]",ASCL1 protein,"[3]; 30 μM, 2 days",undetectable level
same,ASCL1 protein,"[3]; SBHA/SAHA treatment, 48 hours",dose-dependent decrease
same,chromogranin A level,"[3]; SBHA/SAHA, 2 days of treatment",only modest inhibition
same,chromogranin A level,"[4]; 50 μM, 2 days",complete suppression
same,concentrations at which significant Notch1 induction was seen,[4]; 48 hours,20 to 30 µM
same,ASCL1 protein,"[4]; SBHA/SAHA treatment, 48 hours",dose-dependent decrease
N#CC(=C(/N)Sc1ccccc1N)/C(C#N)=C(\N)Sc1ccccc1N [U0126],Notch1-mediated hormone suppression,[2],block
CCCC(=O)[O-].[Na+] [sodium butyrate],cyclin D1,[5],concomitant downregulation
same,p21 and p27,[5],increase
CC(/C=C/C(=O)NO)=C\[C@@H](C)C(=O)c1ccc(N(C)C)cc1 [trichostatin A],cyclin D1,[5],concomitant downregulation
same,p21 and p27,[5],increase
"c5p25: hASH1 anti-sense oligonucleotide 5′-UCCUACUAAGGCUGC-3′ (SEQ ID NO: 2) (listed as RNA, chemistry not given here)",hASH1 expression,[6],minimal hASH1 inhibitory activity
"c5p1476: hASH1 anti-sense oligonucleotide 5′-GGAGCCCACUGCUUU-3′ (SEQ ID NO: 1), directed at the hASH1 3′UTR (listed as RNA, chemistry not given here)",hASH1 expression,[6],very potent inhibitor
"c5pMiss1: missense oligonucleotide 5′-GCUACAUCUGGUCGC-3′ (SEQ ID NO: 3) (listed as RNA, chemistry not given here)",hASH1 expression,[6],no affect
"c5pMiss2: missense oligonucleotide 5′-CACUGAUGCACCUGU-3′ (SEQ ID NO: 4) (listed as RNA, chemistry not given here)",hASH1 expression,[6],no affect

# From patent US8338482B2, “Modulating notch1 signaling pathway for treating neuroendocrine tumors” (Wisconsin Alumni Research Foundation, priority 2007, dated 2012)
